Test results published in patent US20220275387A1, “TRANSCRIPTION FACTOR NtERF221 AND METHODS OF USING THE SAME” (University of Virginia Patent Foundation, priority 2019, published 2022).
Entries after “also recorded” stand apart in the source; their conditions may differ.

Key:
[1] = tested on: Nicotiana tabacum L. var. K326; assay: GC-MS quantification of nicotine in leaf of wild-type and transgenic tobacco; type: in vivo; settings: five-week-old plants, DMSO or MeJA
Method: (§1) Plant materials and transformation. Tobacco plants (Nicotiana tabacum L. var. K326) were used for all the tests and genetic transformations described herein. Wild-type or transgenic seeds were germinated on Murashige and Skoog (MS) plates. For quantitative RT-PCR, germinated small seedlings were transferred onto larger MS plates and grown vertically until two weeks old before treated with 0.1% DMSO (control) or 100 μM MeJA. For TLC and GC-MS analysis, germinated seedlings were transferred in soil and grown under normal condition till five weeks old before DMSO or MeJA treatment. Agrobacterium tumefaciens strain LBA4404 harboring each transgenic vector was used for genetic transformation of tobacco following the experiment procedure described previously (Horsch et al., 1985). At least eight T0 transgenic plants were confirmed by genomic DNA PCR and then self-pollinated to produce T1 generation. […]
Gas chromatography-mass spectrometry (GC-MS). […] Nicotine concentration was measured on a Shimadzu GCMS QP2010 plus system with a protocol developed previously (Goossens et al., (2003); Zhang et al., (2012)). […]
To further quantify nicotine concentration for the comparison between transgenic lines and the wild-types, GC-MS analysis was applied with total alkaloids extracted from the leaf tissue of five-week-old wild-type or transgenic plants treated with DMSO (control) or MeJA. […]

[2] = tested on: Nicotiana tabacum L. var. K326; assay: TLC assay for nicotine accumulation in leaves of T2 overexpression lines; type: in vivo; settings: T2 transgenic plants, 5-week-old, constitutive or conditional overexpression
Method: Plant materials and transformation. Tobacco plants (Nicotiana tabacum L. var. K326) were used for all the tests and genetic transformations described herein. Wild-type or transgenic seeds were germinated on Murashige and Skoog (MS) plates. For quantitative RT-PCR, germinated small seedlings were transferred onto larger MS plates and grown vertically until two weeks old before treated with 0.1% DMSO (control) or 100 μM MeJA. For TLC and GC-MS analysis, germinated seedlings were transferred in soil and grown under normal condition till five weeks old before DMSO or MeJA treatment. […]
Each gene was put into three different expression constructs respectively under the control of three different promoters described above (FIG. 3A). […] For each construct, at least eight lines were confirmed to have the transgene stably integrated into the genome by genomic PCR, the intact structure of the transgene was validated and relative level of transgene expression measured by RT-PCR using gene specific primers as is standard practice. The level of nicotine was assessed by TLC analysis to quickly identify the transformants with higher nicotine accumulation than the wild-type. […] T1 lines were similarly self-pollinated and the resulting T2 plants analyzed. […]

[3] = tested on: NtAO, NtODC, NtPMT, NtQPT, and NtQS; assay: RT-qPCR of nicotine biosynthesis structural genes in transgenic tobacco seedlings; type: in vivo, Nicotiana tabacum; settings: two-week-old seedlings, 100 μM MeJA for 8 hours, normalized to NtEF-1α
Method: as §1
RNA isolation and quantitative reverse transcription-PCR (RT-qPCR). […] The DNA-eliminated total RNA was then reverse-transcribed using QuantiTect reverse transcription kit (Qiagen). Quantitative PCR was conducted iTaq™ Universal SYBR® Green supermix (Bio-Rad Laboratories) on an CFX96™ Real-Time PCR detection system (Bio-Rad Laboratories). […]

## NtERF221: AP2/ERF family transcription factor transgene (CQ808982, SEQ ID NO: 1) overexpressed in tobacco K326
[1]
  nicotine concentration in the leaf, comparison among transgenic lines: highest nicotine concentration
[2]
  nicotine accumulation versus wild-type (TLC): significantly elevated nicotine accumulation
[3]
  JA-induced transcript accumulation of NtAO, NtODC, NtPMT, NtQPT, and NtQS versus wild-type: far greater; also recorded: greatly up-regulated
